# From patent publication US20120165304A1, “6,7,8,9-Tetrahydro-5H-1,4,7,10a-tetraaza-cyclohept[f]indene derivatives, pharmaceutical compositions containing these compounds, their use and processes for preparing them” (BOEHRINGER INGELHEIM INTERNATIONAL GMBH, priority 2008, published 2012)
# Target: human 5-HT2C receptor (Homo sapiens, UniProt P28335, I156V/I160V/N158S)
# Experiment: cell-based
# Chain of human 5-HT2C receptor (P28335 33-458 I156V/N158S/I160V limits assumed): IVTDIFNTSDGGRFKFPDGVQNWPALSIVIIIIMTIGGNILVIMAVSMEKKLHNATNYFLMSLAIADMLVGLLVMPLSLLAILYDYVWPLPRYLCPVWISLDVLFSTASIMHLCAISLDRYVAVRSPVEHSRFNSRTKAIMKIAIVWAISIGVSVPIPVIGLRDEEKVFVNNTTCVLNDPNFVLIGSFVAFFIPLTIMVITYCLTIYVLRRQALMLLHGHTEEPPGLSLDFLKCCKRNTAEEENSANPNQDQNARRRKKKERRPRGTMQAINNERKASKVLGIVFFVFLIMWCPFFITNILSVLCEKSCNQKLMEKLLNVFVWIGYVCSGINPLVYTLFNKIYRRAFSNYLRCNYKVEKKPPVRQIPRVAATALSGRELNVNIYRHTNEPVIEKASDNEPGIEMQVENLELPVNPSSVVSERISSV
structure (smiles),measurement,value
C#CC(C)(C)NC(=O)C1CN(c2c3c(nc4ccnn24)CCNCC3)C1 [Example 37.91],EC50,301 nM
CCC#CCNC(=O)C1CN(c2c3c(nc4ccnn24)CCNCC3)C1 [Example 37.52],EC50,61 nM
O=C(C1CN(c2c3c(nc4ccnn24)CCNCC3)C1)N1CCN(C2CCCCC2)CC1 [Example 37.38],EC50,3 nM
O=C(C1CC1)N1CCN(C(=O)C2CN(c3c4c(nc5ccnn35)CCNCC4)C2)CC1 [Example 37.56],EC50,10 nM
"c1nn2c(N3CCC3)c3c(nc2c1C1CC1)CCNCC3 [Example 29, 10-Azetidin-1-yl-3-cyclopropyl-6,7,8,9-tetrahydro-5H-1,4,7,10a-tetraaza-cyclohepta[f]indene]",EC50,81 nM
CN(CC1CC1)C(=O)C1CN(c2c3c(nc4ccnn24)CCNCC3)C1 [Example 31.97],EC50,156 nM
CC(C)(C)C1CCN(C(=O)C2CN(c3c4c(nc5ccnn35)CCNCC4)C2)CC1 [Example 31.121],EC50,22 nM
CC1CCCC(NC(=O)C2CN(c3c4c(nc5ccnn35)CCNCC4)C2)C1 (stereo not drawn) [Example 37.70],EC50,69 nM
CN(Cc1ccc(OC(F)F)cc1)C(=O)C1CN(c2c3c(nc4ccnn24)CCNCC3)C1 [Example 31.161],EC50,15 nM
CN1CCc2nc3ccnn3c(N3CC(C(=O)N4CCC(C#N)C4)C3)c2CC1 (stereo not drawn) [Example 36.44],EC50,214 nM
O=C(NC1(c2ccc(F)cc2)CC1)C1CN(c2c3c(nc4ccnn24)CCNCC3)C1 [Example 31.93],EC50,786 nM
C#CC1(NC(=O)C2CN(c3c4c(nc5ccnn35)CCNCC4)C2)CCCCC1 [Example 37.79],EC50,62 nM
O=C(C1CN(c2c3c(nc4ccnn24)CCNCC3)C1)N1C[C@@H]2C[C@H]1CN2 [Example 37.28],EC50,6 nM
"C#CC1CCN(C(=O)C2CN(c3c4c(nc5ccnn35)CCN(C)CC4)C2)C1 (stereo not drawn) [Example 39, (3-Ethynyl-pyrrolidin-1-yl)-[1-(7-methyl-6,7,8,9-tetrahydro-5H-1,4,7,10a-tetraaza-cyclohept[f]inden-10-yl)-azetidin-3-yl]-methanone]",EC50,78 nM
COc1cccc(COC2CN(c3c4c(nc5ccnn35)CCNCC4)C2)c1 [Example 20.13],EC50,347 nM
OCC1CN(c2c3c(nc4ccnn24)CCNCC3)C1 [Example 1.5],EC50,193 nM
"c1ccc(C2CCN2c2c3c(nc4ccnn24)CCNCC3)cc1 (stereo not drawn) [Example 21, 10-(2-Phenyl-azetidin-1-yl)-6,7,8,9-tetrahydro-5H-1,4,7,10a-tetraaza-cyclohepta[f]indene]",EC50,5200 nM
O=C(C1CN(c2c3c(nc4ccnn24)CCNCC3)C1)N1CCc2ccc(C(F)(F)F)cc2C1 [Example 31.107],EC50,52 nM
O=C(C1CN(c2c3c(nc4ccnn24)CCNCC3)C1)N1CCc2cccc(C(F)(F)F)c2C1 [Example 31.122],EC50,33 nM
CCN1CCCC1CNC(=O)C1CN(c2c3c(nc4ccnn24)CCNCC3)C1 (stereo not drawn) [Example 37.90],EC50,12 nM
Fc1ccc(OC2CN(c3c4c(nc5ccnn35)CCNCC4)C2)cc1 [Example 1.6],EC50,23 nM
COCC1(CNC(=O)C2CN(c3c4c(nc5ccnn35)CCNCC4)C2)CCCC1 [Example 37.69],EC50,73 nM
Cc1cnn2c(N3CC(C(=O)N4CCC5(CCCC5)C4)C3)c3c(nc12)CCNCC3 [Example 31.248],EC50,25 nM
CC(C)C1CCN(C(=O)C2CN(c3c4c(nc5ccnn35)CCNCC4)C2)CC1 [Example 31.85],EC50,23 nM
CC1CN(C(=O)C2CN(c3c4c(nc5ccnn35)CCNCC4)C2)CCO1 (stereo not drawn) [Example 31.34],EC50,91 nM
O=C(C1CN(c2c3c(nc4ccnn24)CCNCC3)C1)N1CCCC(c2cccc(F)c2)C1 (stereo not drawn) [Example 31.215],EC50,155 nM
C[C@H](NC(=O)C1CN(c2c3c(nc4ccnn24)CCNCC3)C1)C1CCCCC1 [Example 31.189],EC50,315 nM
Cc1ccc(OC2CN(c3c4c(nc5ccnn35)CCNCC4)C2)cc1 [Example 35.45],EC50,129 nM
O=C(C1CN(c2c3c(nc4ccnn24)CCNCC3)C1)N1CC[C@@H](c2ccccc2)C1 [Example 31.223],EC50,39 nM
CC(C)CCN(C)C(=O)C1CN(c2c3c(nc4ccnn24)CCNCC3)C1 [Example 31.74],EC50,175 nM
"Brc1cnn2c(N3CCC3)c3c(nc12)CCNCC3 [Example 2, 10-Azetidin-1-yl-3-bromo-6,7,8,9-tetrahydro-5H-1,4,7,10a-tetraaza-cyclohepta[f]indene]",EC50,4 nM
Cn1c(C2CN(c3c4c(nc5ccnn35)CCNCC4)C2)nc2ccccc21 [Example 34.1],EC50,53 nM
FC(F)(F)Oc1ccccc1OC1CN(c2c3c(nc4ccnn24)CCNCC3)C1 [Example 35.18],EC50,636 nM
c1ccc(COC2CN(c3c4c(nc5ccnn35)CCNCC4)C2)nc1 [Example 20.15],EC50,180 nM
COc1ccccc1C1CCN(c2c3c(nc4ccnn24)CCNCC3)C1 (stereo not drawn) [Example 1.21],EC50,1150 nM
c1csc(COC2CN(c3c4c(nc5ccnn35)CCNCC4)C2)n1 [Example 20.14],EC50,23 nM
O=C(C1CN(c2c3c(nc4ccnn24)CCNCC3)C1)N1CCC(c2cccc(F)c2)CC1 [Example 31.211],EC50,31 nM
CC(C)(O)[C@@H]1CCCN1C(=O)C1CN(c2c3c(nc4ccnn24)CCNCC3)C1 [Example 31.194],EC50,2560 nM
CC1(C)CCN(C(=O)C2CN(c3c4c(nc5ccnn35)CCNCC4)C2)CC1 [Example 31.47],EC50,21 nM
O=C(C1CN(c2c3c(nc4ccnn24)CCNCC3)C1)N1CCc2c(F)cccc2C1 [Example 31.204],EC50,33 nM
c1ccc(CC2CN(c3c4c(nc5ccnn35)CCNCC4)C2)cc1 [Example 1.15],EC50,10 nM
Cc1ccc2c(c1)N(C(=O)C1CN(c3c4c(nc5ccnn35)CCNCC4)C1)CC2 [Example 31.176],EC50,95 nM
O=C(C1CN(c2c3c(nc4ccnn24)CCNCC3)C1)N1Cc2ccccc2C1 [Example 31.44],EC50,113 nM
NC1CCN(C(=O)C2CN(c3c4c(nc5ccnn35)CCNCC4)C2)CC1 [Example 37.42],EC50,2 nM
Clc1ccccc1OC1CCN(c2c3c(nc4ccnn24)CCNCC3)CC1 [Example 1.55],EC50,2780 nM
O=C(C1CN(c2c3c(nc4ccnn24)CCNCC3)C1)N1CCCC2CCCCC21 (stereo not drawn) [Example 31.127],EC50,1280 nM
O=C(C1CCCCC1)N1CCN(C(=O)C2CN(c3c4c(nc5ccnn35)CCNCC4)C2)CC1 [Example 37.101],EC50,70 nM
"CC1CNCCc2nc3ccnn3c(N3CCC3)c21 (stereo not drawn) [Example 5, 10-Azetidin-1-yl-9-methyl-6,7,8,9-tetrahydro-5H-1,4,7,10a-tetraaza-cyclohepta[f]indene]",EC50,570 nM
c1ccc(C2CCN(c3c4c(nc5ccnn35)CCNCC4)C2)cc1 (stereo not drawn) [Example 1.26],EC50,160 nM
COc1ccc(N(C)C(=O)C2CN(c3c4c(nc5ccnn35)CCNCC4)C2)cc1 [Example 31.31],EC50,2150 nM
"CCN1CCN(C(=O)C2CN(c3c4c(nc5ccnn35)CCN(C)CC4)C2)CC1 [Example 36.1, (4-Ethyl-piperazin-1-yl)-[1-(7-methyl-6,7,8,9-tetrahydro-5H-1,4,7,10a-tetraaza-cyclohepta[f]inden-10-yl)-azetidin-3-yl]-methanone]",EC50,69 nM
Fc1cccc(F)c1OC1CN(c2c3c(nc4ccnn24)CCNCC3)C1 [Example 35.41],EC50,9 nM
O=C(C1CN(c2c3c(nc4ccnn24)CCNCC3)C1)N1CCC2(CC1)OCc1ccccc12 [Example 31.153],EC50,86 nM
O=C(NCCc1ccccc1)C1CN(c2c3c(nc4ccnn24)CCNCC3)C1 [Example 31.21],EC50,727 nM
